Patent US7112581B2, “Macrocyclic lactams” (Nereus Pharmaceuticals, Inc., priority 2002, dated 2006)
Values joined by “and” are separate entries in the source; they are usually repeats but may differ in a detail not shown here. Equal entries are not always repeated. Where two headings read alike, the source gives them in different places.

Legend:
[1] = system: HT-29 (ATCC HTB-38) human colorectal adenocarcinoma; assay: tumor cytotoxicity assay (resazurin), HT-29; type: cell-based; settings: HT-29, 48 h
Procedure: HT-29 (ATCC HTB-38) a human colorectal adenocarcinoma was maintained in McCoy's complete medium (McCoy's 5A medium with L-glutamine and 25 mM HEPES supplemented with 10% FBS, 1 mM Na pyruvate, 1X NEAA, 2 mM L-glutamine, and Pen/Strep at 100 IU/ml and 100 μg/ml, respectively). Cell lines were cultured at 37° C., 5% CO2 in a 95% humidified incubator. For tumor cytotoxicity assays HT-29, PC-3, or B16-F10 cells were seeded at 5×10^3, 5×10^3 or 1.25×10^3 cells/well cells were seeded at 5,000 cells/well in 90 μl complete media into a Corning 3904 black-walled, clear-bottom tissue culture plate and the plate were incubated overnight to allow cells to establish and enter log phase growth. Jurkat cells were seeded on the day of compound addition at 2×10^4 cells/well in 90 μl complete media into a Corning 3904 black-walled, clear-bottom tissue culture plate. 20 mM stock solutions of the compound of Formula (I) were prepared in 100% DMSO and stored at −20° C. 10×concentrated serial dilutions of the compounds were prepared in appropriate culture medium for final concentrations ranging from 2×10–5 to 2×10–12. Ten μl volumes of the 10×serial dilutions were added to the test wells in triplicate and the plates returned to the incubator for 48 hours. The final concentration of DMSO was 0.25% in all samples. […] Because living cells metabolize Resazurin, the fluorescence of the reduction product of Resazurin was measured using a Fusion microplate fluorometer (Packard Bioscience) with λex=535 nm and λem=590 nm filters. The plates were removed and resazurin fluorescence was measured using 530 nm excitation and 590 nm emission filters in a Fusion fluorimeter (Packard Instruments). […] The data were analyzed using Prism software (GraphPad Software). The data were normalized to the average of the cells treated with media only (100% cell growth) and EC50 values were determined using a standard sigmoidal dose response curve fitting algorithm.

[2] = system: PC-3 (ATCC CRL-1435) human prostate adenocarcinoma; assay: tumor cytotoxicity assay (resazurin), PC-3; type: cell-based; settings: 48 h, read-out: EC50 for the PC3 assay
[3] = system: Jurkat (ATCC TIB-152) human acute T cell leukemia; assay: tumor cytotoxicity assay (resazurin), Jurkat; type: cell-based
Procedure: (§1) Jurkat (ATCC TIB-152) a human acute T cell leukemia was maintained in RPMI complete medium (RPMI 1640 medium supplemented with 10% FBS, 2 mM L-glutamine, 10 mM HEPES, 1 mM Na pyruvate, 1X NEAA, and Pen/Strep at 100 IU/ml and 100 μg/ml, respectively). Cell lines were cultured at 37° C., 5% CO2 in a 95% humidified incubator. For tumor cytotoxicity assays HT-29, PC-3, or B16-F10 cells were seeded at 5×10^3, 5×10^3 or 1.25×10^3 cells/well cells were seeded at 5,000 cells/well in 90 μl complete media into a Corning 3904 black-walled, clear-bottom tissue culture plate and the plate were incubated overnight to allow cells to establish and enter log phase growth. […] Because living cells metabolize Resazurin, the fluorescence of the reduction product of Resazurin was measured using a Fusion microplate fluorometer (Packard Bioscience) with λex=535 nm and λem=590 nm filters. The plates were removed and resazurin fluorescence was measured using 530 nm excitation and 590 nm emission filters in a Fusion fluorimeter (Packard Instruments). […] The data were analyzed using Prism software (GraphPad Software). The data were normalized to the average of the cells treated with media only (100% cell growth) and EC50 values were determined using a standard sigmoidal dose response curve fitting algorithm.

[4] = system: B16-F10 (ATCC CRL-6475) mouse melanoma; assay: tumor cytotoxicity assay (resazurin), B16-F10; type: cell-based
Procedure: as §1, with “B16-F10” for “Jurkat”, “CRL-6475)” for “TIB-152)”, “mouse melanoma” for “human acute T cell leukemia”, “in” for “in RPMI”, “DMEM (DMEM” for “medium (RPMI 1640 medium”, “HEPES,” for “HEPES, 1 mM Na pyruvate, 1X NEAA,”

[5] = system: Escherichia coli ATCC 610100; assay: antimicrobial resazurin growth assay, E. coli; type: cell-based; settings: ATCC610100, 37° C., 4 to 6 hours
Procedure: (§2) The biological characteristics of compound of Formula (I) were evaluated in Escherichia coli ATCC 610100, Pseudomonas aeruginosa ATCC 614000, Haemophilus influenzae A21515, Staphylococcus aureus, methicillin resistant (MRSA) ATCC 605000, Enterococcus faecalis ATCC 662000, Streptococcus pneumoniae ATCC 661100 and Candida glabrata ATCC 200918. All cultures were maintained in Brain Heart Infusion Medium (Oxoid), except C. glabrata, which was maintained in Potato Dextrose Broth (Difco).
(§3) For antimicrobial assays of E. coli, P. aeruginosa, H. influenzae, MRSA, E. faecalis and S. pneumoniae, the cells in Brain Heart Infusion Medium were added to 96 well plates at a volume of 176 μl/well. The compound to be tested was added to the wells (20 μl/well) together with 10 μl of 0.2 mg/ml resazurin (Sigma). The plates were incubated at 37° C. for 4 to 6 hours. The growth of the cultures was monitored by measuring the fluorescence of the plates using a fluorometer with λex=535 nm and λem=590 nm filters. Resazurin dye without cells was used to determine the background, which was subtracted from the data for all experimental wells. The data were analyzed using Prism software (GraphPad Software). The data were normalized to the average of the cells treated with media only (100% cell growth) and the IC50 values were determined using a standard sigmoidal dose response curve fitting algorithm.

[6] = system: Pseudomonas aeruginosa ATCC 614000; assay: antimicrobial resazurin growth assay, P. aeruginosa; type: cell-based; settings: ATCC614000, 37° C., 4 to 6 hours
Procedure: as §2, §3

[7] = system: Haemophilus influenzae A21515; assay: antimicrobial resazurin growth assay, H. influenzae; type: cell-based; settings: 37° C., 4 to 6 hours
Procedure: as §2, §3

[8] = system: Staphylococcus aureus, methicillin resistant (MRSA) ATCC 605000; assay: antimicrobial resazurin growth assay, MRSA; type: cell-based; settings: 37° C., 4 to 6 hours
Procedure: as §2, §3

[9] = system: Enterococcus faecalis ATCC 662000; assay: antimicrobial resazurin growth assay, E. faecalis; type: cell-based; settings: ATCC662000, 37° C., 4 to 6 hours
Procedure: as §2, §3

[10] = system: Streptococcus pneumoniae ATCC 661100; assay: antimicrobial resazurin growth assay, S. pneumoniae; type: cell-based; settings: ATCC661100, 37° C., 4 to 6 hours
Procedure: as §2, §3

[11] = system: Candida glabrata ATCC 200918; assay: antimicrobial resazurin growth assay, C. glabrata; type: cell-based; settings: Nakaseomyces glabratus, ATCC200918; Potato Dextrose medium
[12] = system: Staphylococcus aureus (MSSA); assay: susceptibility assay by broth microdilution (NCCLS), MSSA; type: cell-based; settings: Staphyloccus aureus MSSA
Procedure: (§4) The anti-infective potential of the compound was re-evaluated in susceptibility assays performed by broth microdilution in accordance with National Committee for Clinical Laboratory Standards (NCCLS) guidelines, M7-A5, January 2000. The compound was tested versus the following microorganisms: Staphylococcus aureus (MSSA), Staphylococcus aureus (MRSA), Streptococcus pneumoniae, vancomycin-sensitive Enterococcus faecalis, Haemophilus influenzae, Pseudomonas aeruginosa and Candida albicans.

[13] = system: Staphylococcus aureus (MRSA); assay: susceptibility assay by broth microdilution (NCCLS), MRSA; type: cell-based; settings: Staphyloccus aureus MRSA
Procedure: as §4

[14] = system: Streptococcus pneumoniae 49619; assay: susceptibility assay by broth microdilution (NCCLS), S. pneumoniae; type: cell-based
Procedure: as §4

[15] = system: vancomycin-sensitive Enterococcus faecalis; assay: susceptibility assay by broth microdilution (NCCLS), E. faecalis; type: cell-based; settings: Enterococcus faecalis VSE
Procedure: as §4

Escherichia coli imp = assay: susceptibility assay by broth microdilution (NCCLS), E. coli; type: cell-based
[16] = system: Haemophilus influenzae 49766; assay: susceptibility assay by broth microdilution (NCCLS), H. influenzae; type: cell-based
Procedure: as §4

[17] = system: Pseudomonas aeruginosa 27853; assay: susceptibility assay by broth microdilution (NCCLS), P. aeruginosa; type: cell-based; settings: Pseudomona aeruginosa 27853
Procedure: as §4

Candida albicans 90028 = assay: susceptibility assay by broth microdilution (NCCLS), C. albicans; type: cell-based
Procedure: as §4

solubility (observation) = type: physicochemical

Q: For `CCC/C=C/CC1C/C=C/C=C(C)/C=C/C=C\C(O)CC(O)C(O)/C=C/C=C/C=C/C(=O)N1` (stereo not drawn) [compound of Formula (I)], which EC50 ([1]; compound alone, read-out: EC50 in the HT-29 assay) is on record?
A: Its EC50 is 0.922 µg/mL and 2.03 µM.

Q: What about the EC50 ([1]; compound with interferon, read-out: EC50 in the HT-29 assay) of the same compound?
A: Its EC50 is 0.263 µg/mL and 580 nM.

Q: And the EC50 ([1]; further evaluation (Table 2), read-out: HT-29 EC50)?
A: Its EC50 is 3620 ± 2570 nM.

Q: What about the EC50 ([2]; compound alone) of the same compound?
A: The EC50 was 1.29 µg/mL and 2.84 µM.

Q: What about the EC50 ([2]; compound with TNF-α) of the same compound?
A: Its EC50 is 0.988 µg/mL and 2.18 µM.

Q: And the EC50 ([3]; further evaluation (Table 2), 48 hours, read-out: Jurkat EC50)?
A: Its EC50 is 2330 ± 1110 nM.

Q: And the EC50 ([3]; one set of evaluations, unit inferred, read-out: EC50 for the Jurkat cells)?
A: Its EC50 is 2330 ± 1110 nM.

Q: And the EC50 ([4]; further evaluation (Table 2), 48 hours, read-out: B16-F10 EC50)?
A: Its EC50 is 2160 ± 870 nM.

Q: What about the EC50 ([4]; one set of evaluations, unit inferred, read-out: EC50 for the B16-F10 cells) of the same compound?
A: The EC50 was 2160 ± 870 nM.

Q: What about the IC50 [5] of the same compound?
A: Its IC50 is greater than 4 µg/mL.

Q: And the IC50 [6]?
A: Its IC50 is greater than 4 µg/mL.

Q: What about the IC50 [7] of the same compound?
A: Its IC50 is greater than 4 µg/mL.

Q: And the IC50 [8]?
A: The IC50 was 1 µg/mL and 2.2 µM.

Q: And the IC50 [9]?
A: Its IC50 is 3 µg/mL and 6.6 µM.

Q: What about the IC50 [10] of the same compound?
A: Its IC50 is 4 µg/mL and 8.8 µM.

Q: What about the IC50 [11] of the same compound?
A: The IC50 was 3 µg/mL and 6.6 µM.

Q: What about the MLC [12] of the same compound?
A: The MLC was greater than 32 µg/mL.

Q: What about the MIC ([12]; Staphylococcus aureus) of the same compound?
A: Its MIC is greater than 32 µg/mL.

Q: And the MLC [13]?
A: The MLC was greater than 32 µg/mL.

Q: And the MIC ([13]; Staphylococcus aureus)?
A: Its MIC is 12 µg/mL.

Q: What about the MIC [14] of the same compound?
A: Its MIC is 32 µg/mL.

Q: And the MLC [14]?
A: The MLC was greater than 32 µg/mL.

Q: What about the MIC [15] of the same compound?
A: Its MIC is 32 µg/mL.

Q: And the MLC [15]?
A: Its MLC is greater than 32 µg/mL.

Q: And the MIC (Escherichia coli imp; Escherichia coli)?
A: Its MIC is greater than 32 µg/mL.

Q: And the MLC (Escherichia coli imp; Escherichia coli imp)?
A: The MLC was greater than 32 µg/mL.

Q: And the MIC [16]?
A: Its MIC is greater than 32 µg/mL.

Q: What about the MLC [16] of the same compound?
A: The MLC was greater than 32 µg/mL.

Q: What about the MLC [17] of the same compound?
A: The MLC was greater than 32 µg/mL.

Q: What about the MIC ([17]; Pseudomonas aeruginosa) of the same compound?
A: Its MIC is greater than 32 µg/mL.

Q: And the MIC (Candida albicans 90028)?
A: Its MIC is greater than 32 µg/mL.

Q: And the MLC (Candida albicans 90028)?
A: Its MLC is greater than 32 µg/mL.

Q: What about the solubility (solubility (observation)) of the same compound?
A: Its solubility is “substantially insoluble”.
